{"source": "paper PMC9804871", "about": "“Effect of Opicapone on Levodopa Pharmacokinetics in Patients with Fluctuating Parkinson's Disease” (Movement Disorders, 2022)", "key": {"[1]": {"conditions": "opicapone pivotal trials; average; cited from earlier work"}, "[2]": {"test": "12-hour levodopa plasma pharmacokinetics", "type": "in vivo, human (patients with PD)", "description": "The study design is illustrated in Figure 1.\nPharmacokinetic evaluation occurred over 12 hours with sampling every 30 minutes, except for the last sample following each LD dose in the opicapone plus four LD intake regimen, which was sampled at 1 hour. The main pharmacokinetics parameters assessed included maximum observed plasma concentration (Cmax), time to achieve peak plasma levels (tmax), minimum observed plasma concentration (Cmin), plasma elimination half‐life (t1/2), area under the curve (AUC), and fluctuation index (FI; as an expression of peak‐to‐trough fluctuation, Cmax, and Cmin, relative to average concentration [Cavg]). The pharmacokinetics of the LD metabolite 3‐O‐methyldopa (3‐OMD) was also evaluated.\nDescriptive statistics were used to summarize the pharmacokinetics parameters for LD and 3‐OMD for each of the three regimens. […] No formal comparison was performed between opicapone regimens."}, "[3]": {"conditions": "opicapone 50 mg added to LD/CD 400/100 mg (both regimens) vs LD/CD 500/125 mg without opicapone"}}, "note": "“Also recorded” adds a separate entry of the source.", "data": [{"smiles": "Cc1c(Cl)c(C)[n+]([O-])c(Cl)c1-c1noc(-c2cc(O)c(O)c([N+](=O)[O-])c2)n1", "note": "[opicapone]", "values": [{"measurement": "reduction of off time relative to placebo", "setting": "[1]", "value": 1, "unit": "h"}, {"measurement": "effect on LD minimal (trough) concentrations (Cmin)", "setting": "[2]; [3]", "value": "at least doubled; also recorded: twofold increase"}, {"measurement": "effect on LD plasma half-life (t1/2)", "setting": "[2]; [3]", "value": "at least doubled"}, {"measurement": "impact on time to reach (tmax) maximum LD concentrations", "setting": "[2]; opicapone 50 mg added to either LD/CD 400/100 mg regimen", "value": "no impact"}, {"measurement": "impact on maximal LD concentrations (Cmax)", "setting": "[2]; opicapone 50 mg added to either LD/CD 400/100 mg regimen vs five-intake LD/CD 500/125 mg without opicapone", "value": "no significant impact"}]}]}
